Assay results taken from ChEMBL document CHEMBL1144227, “2,2'-Pyridoin derivatives protect HL-60 cells against oxidative stress” (Bioorg Med Chem Lett, 2008).
Active and inactive are the calls of the source. The calls are words filed in the database; no cut-off is given here.

Assays:
HL-60 [1] = test: Radical scavenging activity in human HL-60 cells assessed as reduction of hydrogen peroxide-induced ROS generation at 30 uM after 1 hr by 2',7'-dichlorofluorescein diacetate based flow cytometry; type: functional, cell-based
HL-60 [2] = test: Cytoprotective activity against hydrogen peroxide-induced cell death in human HL-60 cells assessed as cell viability at 30 uM after 24 hrs by trypan blue exclusion assay; type: functional; conditions: for viability at 30 µM: HL-60, 24 h, read-out: Activity
HL-60 [3] = test: Radical scavenging activity in human HL-60 cells assessed as reduction of hydrogen peroxide-induced ROS generation at 30 uM administered 3 hrs before H2O2 challenge measured after 1 hr by 2',7'-dichlorofluorescein diacetate based flow cytometry; type: functional, cell-based
HL-60 [4] = test: Toxicity against human HL-60 cells at 100 uM after 24 hrs by trypan blue exclusion assay; type: cell-based; conditions: hl-60, 24 h
[5] = Antioxidant activity assessed as inhibition of lipid peroxidation; type: functional
HL-60 [6] = test: Toxicity against human HL-60 cells at 60 uM after 24 hrs by trypan blue exclusion assay; type: cell-based; conditions: hl-60, 24 h

SMILES | Activity (HL-60 [1]) | viability at 30 µM (HL-60 [2]) [%] | Activity (HL-60 [3]) | Activity (HL-60 [2]) | Activity (HL-60 [4]) | Activity [5] | Activity (HL-60 [6])
O=C1O[C@H]([C@@H](O)CO)C(O)=C1O [ASCORBIC ACID] | Active | 37.9 | Active | – | – | – | –
Cc1ccc(C(=O)C(=O)c2ccc(C)cn2)nc1 | – | – | – | Active | Non-toxic | – | –
O/C(=C(/O)c1ccccn1)c1ccccn1 | Active | 42.1 | – | – | Non-toxic | – | –
Cc1cccc(C(=O)C(=O)c2cccc(C)n2)n1 | – | – | – | Active | Non-toxic | – | –
Cc1ccc(/C(O)=C(\O)c2ccc(C)cn2)nc1 | Active | 51.9 | – | – | – | Active | Non-toxic
COc1ccc(C(=O)C(=O)c2ccc(OC)cn2)nc1 | – | – | – | inactive | Non-toxic | – | –
Cc1cccc(/C(O)=C(\O)c2cccc(C)n2)n1 | Active | 51.9 | – | – | Non-toxic | – | –
COc1cccc(/C(O)=C(\O)c2cccc(OC)n2)n1 | Active | 51.9 | – | – | Non-toxic | Active | –
O=C(C(=O)c1ccccn1)c1ccccn1 | – | – | – | Active | Non-toxic | – | –
COc1cccc(C(=O)C(=O)c2cccc(OC)n2)n1 | – | – | – | Active | Non-toxic | – | –
Cc1cc(C(C)(C)C)c(O)c(C(C)(C)C)c1 [BUTYLATED HYDROXYTOLUENE] | – | – | – | – | Toxic | – | –
COc1ccc(/C(O)=C(\O)c2ccc(OC)cn2)nc1 | Active | 51.9 | – | – | – | Active | Non-toxic
